Laboratory results from the CheMixHub viscosity set.

Assay: xn = mol fraction of the nth substance listed

CC(C)CCC[C@@H](C)[C@H]1CC[C@H]2[C@@H]3CC=C4C[C@@H](O)CC[C@]4(C)[C@H]3CC[C@]12C + ClC(Cl)Cl
viscosity [mPa·s], 101.33 kPa
Conditions | x1 = 0.00286 | x1 = 0.0048 | x1 = 0.0081 | x1 = 0.0138 | x1 = 0.01748 | x1 = 0.0223 | x1 = 0.02849 | x1 = 0.03663
298 K | 0.557 | 0.57 | 0.594 | 0.638 | 0.667 | 0.709 | 0.766 | 0.848
303 K | 0.534 | 0.547 | 0.568 | 0.608 | 0.635 | 0.673 | 0.724 | 0.798
313 K | 0.494 | 0.504 | 0.522 | 0.555 | 0.578 | 0.609 | 0.652 | 0.712
323 K | 0.459 | 0.468 | 0.483 | 0.511 | 0.529 | 0.555 | 0.589 | 0.637

Cc1ccccc1C + ClC(Cl)Cl
298.15 K, 101 kPa
Conditions | viscosity [mPa·s]
x2 = 0.262 | 0.739
x2 = 0.3694 | 0.725
x2 = 0.5222 | 0.6941
x2 = 0.5776 | 0.682
x2 = 0.6279 | 0.6691
x2 = 0.6624 | 0.6592
x2 = 0.7082 | 0.6482
x2 = 0.7562 | 0.6348
x2 = 0.7944 | 0.6224

c1ccc(Oc2ccccc2)cc1 + ClC(Cl)Cl
298.15 K, 101 kPa
Conditions | viscosity [mPa·s]
x1 = 0.3136 | 2.22
x1 = 0.5696 | 1.39
x1 = 0.817 | 0.83

COCCOCCO + ClC=C(Cl)Cl
298.15 K, 101.33 kPa
Conditions | viscosity [mPa·s]
x1 = 0.0091 | 0.537
x1 = 0.0258 | 0.553
x1 = 0.0362 | 0.567
x1 = 0.0477 | 0.582
x1 = 0.0679 | 0.61
x1 = 0.0896 | 0.643
x1 = 0.1146 | 0.685
x1 = 0.1489 | 0.742
x1 = 0.187 | 0.817
x1 = 0.2425 | 0.926
x1 = 0.2811 | 1.009
x1 = 0.3123 | 1.082
x1 = 0.3733 | 1.237
x1 = 0.4192 | 1.356
x1 = 0.4582 | 1.467
x1 = 0.4988 | 1.587
x1 = 0.541 | 1.725
x1 = 0.5789 | 1.849
x1 = 0.608 | 1.948
x1 = 0.6351 | 2.044
x1 = 0.6756 | 2.194
x1 = 0.7372 | 2.433
x1 = 0.7781 | 2.596
x1 = 0.811 | 2.73
x1 = 0.8467 | 2.882
x1 = 0.8774 | 3.015
x1 = 0.9167 | 3.194
x1 = 0.9481 | 3.329
x1 = 0.9733 | 3.449
x2 = 0.0104 | 3.531

CC(C)CCC[C@@H](C)[C@H]1CC[C@H]2[C@@H]3CC=C4C[C@@H](O)CC[C@]4(C)[C@H]3CC[C@]12C + ClCCCl
viscosity [mPa·s], 101.33 kPa
Conditions | 298 K | 303 K | 313 K | 323 K
x1 = 0.00307 | 0.794 | 0.743 | 0.659 | 0.587
x1 = 0.00516 | 0.812 | 0.761 | 0.673 | 0.599
x1 = 0.00648 | 0.825 | 0.772 | 0.682 | 0.608
x1 = 0.00816 | 0.84 | 0.785 | 0.692 | 0.619
